Assay [1] deals with CSPG. Put plainly: CSPG neoepitope immunolabeling of chondroitinase-treated human nerve segments. From the text:
Many of the experiments described in the examples above performed using rat nerves also have been replicated using human nerve. Except where otherwise indicated, the procedures described in Examples 1 and 2 using rat nerve were also followed in Examples 6 and 7 using human nerve. Human sural and tibial nerves were obtained fresh from surgical leg amputation.
Human nerves were first examined to determine if their content of CSPG and laminin was similar to that observed in rat nerves. […] Human nerves stained for CSPG neoepitope and laminin are shown, respectively, in FIGS. 9A and 9B.

Assay [2] concerns CSPG. As to the kind of experiment: CSPG neoepitope immunostaining of injured sciatic nerve after a single in vivo injection. To be noted: 1 U in 2 μl injected 2 mm distal to injury; 4 days (transection) or 2 days (crush). Also on record: species or system rat. The method, then: Surgical procedures for nerve transection and nerve crush experiments. All surgical procedures were performed according to Institutional Animal Care and Use Committee (IACUC) approved protocols. Young adult SPRAGUE DAWLEY rats (HARLAN Indianapolis, Ind.) were deeply anesthetized with xylazine (15 mg/kg, i.m.) followed by ketamine-HCl (110 mg/kg, i.p.). Six animals received bilateral nerve crush injuries. Sciatic nerves were exposed and then crushed with firm pressure for thirty seconds with a DUMONT #5 forceps at a site 4 mm distal to the tendon of the internal obdurator. The crush site was marked with an epineurial suture. In a separate set of experiments, eight rats received bilateral sciatic nerve transection injuries using serrated scissors. The proximal and distal stumps were […] by epineurial neurorrhaphy using 9-0 ETHILON sutures. Fibrin glue (fibrinogen and thrombin) was then applied to stabilize the union. In both injury models, the right sciatic nerves were injected 2-mm distal to the injury with chondroitinase ABC (1 U in 2 μl) (high-purity, protease-free; SIGMA CHEMICAL CO., St. Louis, Mo.). Left sciatic nerves (with the same injury as the right side) were injected with vehicle alone (0.1% bovine serum albumin in PBS). […]
Immunocytochemistry. Axonal regeneration was assessed by GAP-43 immunofluorescence and digital image analysis. […]

As for chondroitinase ABC, the “CSPG side chain degradation by neoepitope labeling” value in assay [1] is given as “effectively degraded”. The “CSPG degradation in extracellular matrix around the injection site” value in assay [2] is given as “substantially, if not completely, degraded CSPG”.
